# “And” between values parts separate entries of the source, which are not always exact repeats. Equal values may be shown once.
# Test system: CEM cells
# Assay: Non-targeted LC-MS metabolite profiling: percent [13C6]glucose labeling and relative metabolite levels
# Type: cell-based, human
# Conditions: CEM cells, 12 h following release from G1 arrest, replicates #1-#6
# Excerpt: To further investigate the functions of dCK and ATR at the G1/S transition in CEM cells, a non-targeted liquid chromatography mass spectrometry (LC-MS) assay was used to determine the utilization of labeled [^13C6]glucose and [^13C9,^15N3]deoxycytidine, the main substrates for de novo and salvage nucleotide biosynthesis, respectively. Of the 166 metabolites identified in CEM cells treated with VE-822 and/or dCKi, 105 metabolites found in all four treatment groups contained glucose-derived ^13C atoms. […] These metabolites included intermediates such as rUTP, rCTP and rCDP in the de novo dCTP biosynthesis (Fig. 1d). […] However, several deoxyribonucleotides, including dCTP, were below the limit of detection of the non-targeted LC-MS approach, raising the concern that the sensitivity of this assay is not sufficient to measure the contribution of the salvage pathway or the ratio of de novo and salvage biosynthesis to these pools. To address this problem, a newly developed targeted MS assay was developed (Fig. 1e and Supplementary Fig. 3). In this assay, samples containing either extracted dNTPs or hydrolyzed DNA from labeled cells are separated by LC for detection by a triple quadrupole mass spectrometer using multiple reaction monitoring (LC-MS/MS-MRM). The first (Q1) and third (Q3) quadrupoles function as mass filters, while the second (Q2) quadrupole serves as a collision chamber (Fig. 1e). For instance, to profile the biosynthetic composition of deoxycytidine (dC) derived from hydrolyzed DNA or dCTP, an intact, protonated dC ion is selected in Q1, followed by fragmentation of the glycosidic bond, which releases protonated cytosine in Q2, that is filtered in Q3 and detected to generate an ion chromatogram. The peak areas for the ion chromatograms of salvage [^13C9,^15N3]dC (red trace), de novo [^13C5]dC (black trace, from [^13C6]glucose) and unlabeled dC (gray trace) (Fig. 1e) are used to determine the relative contributions of the de novo and salvage routes both to dCTP pools and to DNA-incorporated dCTP.
# Cells were transferred into RPMI-1640 without glucose and supplemented with 10% dialyzed FBS (Gibco) containing the following labeled substrates: precursors for de novo [U-^13C6]glucose (Sigma-Aldrich, 389374) at 11 mM; precursors for purine salvage [U-^13C10,^15N5]dA (Cambridge Isotopes, CIL 3896), [^15N5]dA (Cambridge Isotopes, NLM-3895) and [^15N5]dG (Cambridge Isotopes, NLM-3899) at 5 µM or as indicated; and precursors for pyrimidine salvage: [U-^13C9,^15N3]dC (Silantes, 124603602) and [U-^13C10,^15N2]dT (Cambridge Isotopes, CNLM-3902) at 5 µM and [^15N2]orotate (Cambridge Isotopes, NLM-1048) at indicated concentrations. The cells were incubated for 12 h or as indicated before sample collection and processing. […]
# Non-targeted LC-MS metabolic assays. 1 x 10^6 cells were washed with ice-cold 150 mM ammonium acetate twice before adding 1 mL of ice-cold 80% methanol with 10 nM norvaline as an internal standard. After vigorous vortexing, samples were centrifuged at maximum speed, the aqueous layer was transferred to a glass vial and the metabolites were dried under vacuum. Metabolites were resuspended in 50 μL 70% acetonitrile (ACN) and 5 μL of this solution used for the mass spectrometer-based analysis. The analysis was performed on a Q Exactive (Thermo Scientific) in polarity-switching mode with positive voltage 4.0 kV and negative voltage 4.0 kV. The mass spectrometer was coupled to an UltiMate 3000RSLC (Thermo Scientific) UHPLC system. Mobile phase A was 5 mM ammonium acetate (NH4AcO), pH 9.9, B was acetonitrile and the separation achieved on a Luna […] NH2 100 A column (150 × 2.0 mm, Phenomenex). The flow was 200 μL/min, and the gradient ran from 15% A to 95% A in 18 min, followed by an isocratic step for 9 min and re-equilibration for 7 min. Metabolites were detected and quantified as area under the curve based on retention time and accurate mass (≤ 3 p.p.m.) using the TraceFinder 3.1 (Thermo Scientific). Relative amounts of […]
# [1] = metabolite 2-HG (C02630), listed as D
# [2] = metabolite 2-Oxoadipate (C00322), listed as D
# [3] = metabolite 3PG (C00197), listed as D
# [4] = metabolite 4-OH-PheLac (C03672), listed as D
# [5] = metabolite 5-Oxoproline (C01879), listed as D
# [6] = metabolite 5M-adenosine (C00170), listed as D
# [7] = metabolite A (C00212), listed as D
# [8] = metabolite ADP (C00008), listed as D
# [9] = metabolite AMP (C00020), listed as D
# [10] = metabolite ATP (C00002), listed as D
# [11] = metabolite Ac-carnitine (C02571), listed as D
# [12] = metabolite Ac-choline (C01996), listed as D
# [13] = metabolite Aconitate (C00417), listed as D
# [14] = metabolite Adenine (C00034), listed as D
# [15] = metabolite Ala (C00041), listed as D
# [16] = metabolite Allantoin (C02350), listed as D
# [17] = metabolite Arg (C00062), listed as D
smiles,measurement,setting,value
COc1ccc(-c2nc([C@@H](C)Sc3nc(N)cc(N)n3)c(C)s2)cc1OCCNS(C)(=O)=O [dCKi],"Relative level, S7P",listed as D,0.547 and 0.8 and 1.8 and 0.0379 and 0.143 and 0.5
same,"Relative level, SAM",listed as D,1.1 and 1.4 (2×) and 0.8 and 0.6 and 0.7
same,"Relative level, Sarc (C00213)",listed as D,1.2 and 1.0 (2×) and 1.6 and 0.662 and 0.641
same,"Relative level, Ser (C00065)",listed as D,1.1 and 1.2 and 1.3 and 0.846 and 0.7 and 0.9
same,"Relative level, Shikimate (C00493)",listed as D,1.3 and 0.7 and 1.0 and 0.649 and 0.9 (2×)
same,"Relative level, Succ (C00042)",listed as D,1.5 and 0.6 (2×) and 1.3 and 0.374 and 0.633
same,"Relative level, T (C00214)",listed as D,1.2 and 1.1 and 1.0 and 1.4 and 151.2 and 4.3
same,"Relative level, Thr (C00188)",listed as D,1.1 and 1.2 and 1.3 and 0.8 and 0.7 and 0.738
same,"Relative level, Thymine (C00178)",listed as D,1.0 and 1.2 and 1.3 and 0.9 and 0.95 and 1.1
same,"Relative level, Trigonelline (C01004)",listed as D,1.2 (2×) and 0.847 and 1.1 and 1.5 and 1.0
same,"Relative level, Trp (C00078)",listed as D,1.1 and 1.4 and 1.7 and 0.9 (2×) and 1.0
same,"Relative level, Tyr (C00082)",listed as D,1.2 and 1.4 and 1.6 and 0.9 and 0.7 and 0.8
same,"Relative level, Tyramine (C00483)",listed as D,1.2 (2×) and 1.1 and 0.8 (2×) and 0.7
same,"Relative level, UDP (C00015)",listed as D,0.742 and 1.3 and 2.0 and 0.235 and 0.464 and 0.9
same,"Relative level, UDP-Glc (C00029)",listed as D,0.8 and 1.2 and 1.1 and 0.3 and 0.6 (2×)
same,"Relative level, UDP-GlcNAc (C00043)",listed as D,1.0 and 1.4 and 1.2 and 0.5 and 0.744 and 0.8
same,"Relative level, UMP (C00105)",listed as D,1.3 and 1.6 and 1.9 and 0.4 and 0.552 and 0.7
same,"Relative level, UTP (C00075)",listed as D,0.4 and 0.9 and 1.4 and 0.092 and 0.334 and 0.547
same,"Relative level, Uracil (C00106)",listed as D,1.2 (2×) and 0.9 and 1.0 and 1.3 and 1.9
same,"Relative level, Uric Acid (C00366)",listed as D,1.5 and 0.155 and 0.646 and 0.6 and 0.362 and 0.421
same,"Relative level, Urocanate (C00785)",listed as D,2.0 and 0.4 and 0.448 and 1.2 (2×) and 1.0
same,"Relative level, Val (C00183)",listed as D,1.1 and 1.2 (2×) and 0.9 (2×) and 1.0
same,"Relative level, Vit-C (C00072)",listed as D,0.9 and 0.181 and 1.3 and 0.0595 and 0.3 and 0.557
same,"Relative level, Xanthine (C00385)",listed as D,1.7 and 0.5 and 0.6 and 1.1 and 1.5 and 1.2
same,"Glucose labeling, 2-HG",[1],6.77% and 13.59% and 15.44% and 1.27% and 1.71% and 4.69%
same,"Relative level, 2-HG",[1],1.0 and 0.9 and 1.5 and 0.5 (2×) and 0.7
same,"Glucose labeling, 2-HIC",metabolite 2-HIC (C03264),0.00%
same,"Relative level, 2-HIC","metabolite 2-HIC (C03264), listed as D",1.2 and 1.1 and 1.4 and 0.9 and 1.3 and 0.8
same,"Glucose labeling, 2-KIC",metabolite 2-KIC (C00233),0.00%
same,"Relative level, 2-KIC","metabolite 2-KIC (C00233), listed as D",1.2 and 0.9 (3×) and 1.1 and 0.8
same,"Glucose labeling, 2-Oxoadipate",[2],0.00% (5×) and 1.11e-14%
same,"Relative level, 2-Oxoadipate",[2],0.7 (2×) and 0.646 and 0.742 and 1.0 and 0.9
same,"Glucose labeling, 2-Oxosuccinamate",metabolite 2-Oxosuccinamate (C02362),0.0737%
same,"Relative level, 2-Oxosuccinamate","metabolite 2-Oxosuccinamate (C02362), listed as D",1.2 and 0.465 and 0.6 and 0.528 and 0.8 and 0.469
same,"Glucose labeling, 3PG",[3],92.31% and 91.58% and 98.25% and 86.75% and 100.00% and 88.16%
same,"Relative level, 3PG",[3],0.4 and 0.7 and 0.846 and 0.082 and 0.125 and 0.0782
same,"Glucose labeling, 4-OH-PheLac",[4],0.00% (5×) and -2.22e-14%
same,"Relative level, 4-OH-PheLac",[4],1.1 and 1.4 and 1.5 and 0.641 and 0.6 and 0.8
same,"Glucose labeling, 5-Oxoproline",[5],0.92% and 1.40% and 1.07% and 1.03% and 1.24% and 1.22%
same,"Relative level, 5-Oxoproline",[5],1.1 and 1.2 and 1.5 and 0.853 and 0.9 and 1.0
same,"Glucose labeling, 5M-adenosine",[6],0.00% (3×) and -2.22e-14% (3×)
same,"Relative level, 5M-adenosine",[6],1.2 and 1.7 and 1.8 and 0.756 and 0.7 and 1.0
same,"Glucose labeling, A",[7],0.07% and 0.09% and 0.36% and 0.41% (2×) and 0.34%
same,"Relative level, A",[7],1.5 and 0.9 (2×) and 1.1 and 0.856 and 0.8
same,"Glucose labeling, ADP",[8],70.99% and 74.74% and 75.09% and 55.71% and 66.84% and 71.23%
same,"Relative level, ADP",[8],0.7 and 1.2 and 1.9 and 0.226 and 0.4 and 0.8
same,"Glucose labeling, AMP",[9],68.04% and 70.86% and 73.23% and 43.50% and 56.58% and 70.44%
same,"Relative level, AMP",[9],1.2 (2×) and 1.8 and 0.25 and 0.471 and 0.9
same,"Glucose labeling, ATP",[10],75.87% and 76.55% and 77.60% and 67.61% and 74.40% and 75.12%
same,"Relative level, ATP",[10],0.38 and 0.9 and 1.3 and 0.117 and 0.3 and 0.6
same,"Glucose labeling, Ac-carnitine",[11],31.00% and 33.96% and 35.62% and 27.44% and 29.81% and 28.83%
same,"Relative level, Ac-carnitine",[11],1.1 and 1.3 and 1.2 and 0.7 and 0.756 and 0.8
same,"Glucose labeling, Ac-choline",[12],0.00451% and 0.00494% and 0.00571% and 0.0058% and 0.0047% and 0.00638%
same,"Relative level, Ac-choline",[12],0.9 and 1.1 and 1.0 (4×)
same,"Glucose labeling, Aconitate",[13],32.66% and 37.44% and 42.11% and 17.39% and 31.02% and 28.93%
same,"Relative level, Aconitate",[13],0.7 and 1.2 and 1.6 and 0.2 and 0.5 and 0.639
same,"Glucose labeling, Adenine",[14],0.0339% and 2.19% and 0.79% and 0.14% and 0.00469% and 0.21%
same,"Relative level, Adenine",[14],1.9 and 0.7 and 1.3 (2×) and 3.1 and 1.0
same,"Glucose labeling, Ala",[15],47.12% and 64.98% and 65.33% and 49.43% and 49.22% and 48.91%
same,"Relative level, Ala",[15],1.5 and 1.2 and 1.3 and 0.8 (3×)
same,"Glucose labeling, Allantoin",[16],0.00% (5×) and 1.11e-14%
same,"Relative level, Allantoin",[16],1.1 and 1.9 and 2.0 and 0.8 and 1.3 and 1.5
same,"Glucose labeling, Arg",[17],0.0044% and 0.00434% and 0.00388% and 0.00418% and 0.00453% and 0.00424%
same,"Relative level, Arg",[17],1.0 and 1.3 and 1.5 and 0.749 and 0.7 (2×)
same,"Glucose labeling, Arg-Succ","metabolite Arg-Succ (C03406), listed as D",7.24% and 12.66% and 11.40% and 7.14% and 3.06% and 7.90%
